How the values were obtained:
[1] = clinical studies; less frequent than with marketed NNRTIs; cited from earlier work
[2] = Effect of gamma irradiation process parameters on recovery of TMC278 from polymer specimens; format: physicochemical
Procedure: For those samples that were irradiated under a nitrogen atmosphere, the following procedure was followed. Polymer implants were prepared containing 60% TMC278 and 40% PLGA 50/50 as described above. Samples were placed in Nalgene™ cuvettes inside the antechamber of a nitrogen glovebox. An automatic vacuum cycle was executed consisting of three 8 minute vacuum purges each followed by nitrogen refilling. The samples were transferred to the main chamber and allowed to equilibrate overnight. The cuvettes were placed in foil pouches and the pouches were sealed before removal from the nitrogen glovebox. Samples were removed from glovebox and irradiated as directed.
Those samples that were irradiated under ambient conditions were placed in vials and aluminum pouches, which were heat sealed under ambient conditions and were stored at 0° C. until they reached that temperature. The samples that were processed at 0° C. were stored at 0° C. Subsequently, the samples were removed from freezer environment and immediately placed in the irradiator. […]
From the data it can be seen that exposure level of irradiation is the most significant factor in achieving complete recovery of TMC278 from irradiated samples. […] In addition, the samples that were exposed to 15 kgy irradiation under nitrogen environment were analyzed for impurities stemming from TMC278 degradation.

[3] = Solubility of TMC278 and of TMC278 recrystallized from DMSO; format: physicochemical
Procedure: In addition to increasing the water uptake into the bulk of the polymer, excipients can be used to decrease the crystallinity of the TMC278 and thereby lower the energy necessary to solubilize the drug. […] The recrystallized TMC278 was prepared by dissolving 10 grams of TMC278 in 800 ml of DMSO under gentle stirring for 2 hours. One hundred milliliters of the solution was subsequently poured into a flat bottomed aluminum mold. Solution was lyophilized using a Dora-Stop MTS system. Lyophilized TMC278 was collected. Two grams of PLGA 50/50 were fed into DACA compounder that was pre-set to 120° C. with screws rotating at 100 rpm. After the polymer was fed into the DACA and melted, two grams of lyophilized TMC278 were fed into the compounder and mixed at the set conditions for an additional 5 minutes. The extruded strands were collected, cooled in ambient conditions and placed in plastic bags and stored in a nitrogen box for analysis.
The lowered crystallinity of the TMC278 when re-crystallized from DMSO is also reflected in the change of the appearance of the TMC278 crystals following the recrystallization procedure. The morphology of the TMC278 particles in the drug powder appear compact and needle-shaped, but after the recrystallization process the particles are highly porous (FIG. 3). […]

TMC278 recovered (average) ([2]; irradiated at 25 kgy (under nitrogen))	Solubility in DMSO ([3]; DMSO)	Solubility relative to unrecrystallized TMC278 ([3]; recrystallized (lyophilized from DMSO) versus unrecrystallized TMC278)	SMILES	Side effects [1]	Impurities stemming from TMC278 degradation (mass spectrometry) ([2]; 15 kgy irradiation under nitrogen environment)
81%	highly soluble	–	Cc1cc(C=CC#N)cc(C)c1Nc1ccnc(Nc2ccc(C#N)cc2)n1 [TMC278, 4-[[4-[[4-(2-cyanoethenyl)-2,6-dimethylphenyl}-amino]-2-pyrimidinyl]-amino]-benzonitrile]	nausea, dizziness, abnormal dreams, dyspepsia, asthenia, skin rashes, somnolence and vertigo	no new impurities formed by the irradiation
–	–	more than 250 ×	Cc1cc(/C=C/C#N)cc(C)c1Nc1ccnc(Nc2ccc(C#N)cc2)n1 [recrystallized TMC278]	–	–
